The values below come from PubChem BioAssay (NCI).

Values joined by “and” are separate entries in the source; they are usually repeats but may differ in a detail not shown here. Identical values can stand only once.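 Following 48 hours of exposure in 96-well plates, responses at five concentrations were used to interpolate endpoints linearly. At the GI50, growth is halved. At the TGI there is no net growth.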

What all share (assay): NCI tumour cell line growth inhibition, 48 h
The subject of experiment [1] is MALME-3M melanoma.
Experiment [2] has as its system HL-60(TB) leukemia.
For experiment [3], the system named is HOP-92 NSCLC.
The test system of experiment [4] is SK-OV-3 ovarian.
The subject of experiment [5] is CCRF-CEM leukemia.
In experiment [6] the test system is COLO 205 colon.
Experiment [7] deals with A549 NSCLC.
Experiment [8] has as its system MOLT-4 leukemia.
Experiment [9] deals with PC-3 prostate.
For experiment [10], the system named is UO-31 renal.

With `CC(=O)N[C@@H](Cc1ccc(OP(=O)(O)O)cc1)C(=O)N[C@H]1CCC(=O)N2CCC[C@@H](C(=O)NC3CCc4ccccc43)N2C1=O` (some centres undefined), the GI50 in experiment [1] was over 25 µM; in experiment [2], over 25000 nM; in experiment [3] it was over 25000 nM; in [4], over 25000 nM; in experiment [5], over 25000 nM; in [6] it was over 25000 nM. Further, the GI50 in experiment [7], in [8], in experiment [9] and in experiment [10] was over 25000 nM in each case. Further, the TGI in experiment [1], in experiment [2], in [3], in [4], in experiment [5] and in experiment [6] was over 25 µM in each case. Besides, the TGI in experiment [7], in experiment [8], in experiment [9] and in [10] was over 25 µM in each case.

In the case of `CCC(C)C1NC(=O)C(NC(=O)C(CC(C)C)N(C)C(=O)[C@@H]2CC(O)CN2C(=O)[C@H](C)O)C(C)OC(=O)[C@H](Cc2ccc(OC)cc2)N(C)C(=O)[C@@H]2CCCN2C(=O)[C@H](CC(C)C)NC(=O)C(C)C(=O)[C@H](C(C)C)OC(=O)CC1O` (some centres undefined), the GI50 in experiment [1] is 0.013 µM; in experiment [2], 154 nM; in [3] it was 12.7 nM; in experiment [4], 20.9 nM; in [5], 27.6 nM; in experiment [6], 16.3 nM. Moreover, the GI50 in experiment [7] was 27.7 nM; in experiment [8], 14.2 nM; in experiment [9], 60.3 nM; in [10] it was 581 nM. Besides, the TGI was 1.07 µM and 0.185 µM in experiment [1]; 2.03 µM in experiment [2]; 1.99 µM and 0.285 µM in experiment [3]; 1.11 µM and 0.404 µM in [4]; 0.28 µM in experiment [5]; 0.273 µM and 1.69 µM in [6]. Also, the TGI in experiment [7] was 1.91 µM; in experiment [9], 1.83 µM and 0.416 µM; in [10], 5.65 µM.

On to `O=C(CN1CCN(C(=O)c2ccco2)CC1)Nc1ccc(Cl)cc1C(=O)c1ccccc1Cl`, for which the GI50 is 7 µM in experiment [1]; 1310 nM in experiment [2]; 4450 nM in [3]; 16100 nM in experiment [4]; 5280 nM in [5]; 7320 nM in [6]. In addition, the GI50 is 5610 nM in experiment [7], 2140 nM in experiment [8], 2750 nM in [9] and 2280 nM in experiment [10]. For the same molecule, the TGI was 22.2 µM in [1]; 2.95 µM in [2]; 24.1 µM in experiment [3]; 76.7 µM in experiment [4]; over 100 µM in experiment [5]; 23.7 µM in [6]. For the same molecule, the TGI in experiment [7] was 39.4 µM; in experiment [8], 5.44 µM; in experiment [9] it was 16.3 µM; in experiment [10] it was 14.9 µM.

For `COC(=O)[C@]12CC[C@@H](C)[C@H](C)[C@@H]1C1=CC[C@@H]3[C@@](C)(CC#N)C4=C(C[C@@]3(C)[C@]1(C)CC2)OC[C@]4(C)C=O`, the GI50 in experiment [1] is 4.76 µM; in [2], 3030 nM; in experiment [3], 4530 nM; in experiment [4], 4920 nM; in experiment [5] it was 3490 nM; in experiment [6], 14400 nM. The GI50 in experiment [7] is 10200 nM; in experiment [8], 2100 nM; in experiment [9], 3310 nM; in [10], 3070 nM. For the same molecule, the TGI in [1] came out at 27.8 µM; in [2], 6.77 µM; in experiment [3], 34.7 µM; in [4] it was 62.6 µM; in experiment [5], 16.9 µM; in experiment [6], 29.6 µM. The TGI was 25 µM in experiment [7], 6.89 µM in experiment [8], 73.7 µM in experiment [9] and 39.5 µM in [10].

For the molecule `COc1ccc(/C=C\c2cc(OC)c(OC)c(OC)c2)c(NS(=O)(=O)c2ccc(F)cc2)c1O`, the GI50 in [1] is 10.2 µM; in experiment [2], 32 nM; in experiment [3] it was 72.3 nM; in experiment [4], 211 nM; in experiment [5], 43.5 nM; in experiment [6], 1930 nM. For the same molecule, the GI50 in [7] was 164 nM; in experiment [8], 46.6 nM; in experiment [9], 42.8 nM; in [10], 333 nM. Moreover, the TGI in experiment [1] was over 100 µM; in [2] it was 23.8 µM; in experiment [3], 16.7 µM; in experiment [4], over 100 µM; in experiment [5], over 100 µM; in experiment [6], 7.94 µM. In addition, the TGI in experiment [7] was over 100 µM; in experiment [8], over 100 µM; in experiment [9], over 70.8 µM; in [10], over 82.9 µM.

Consider `COc1cc2c(cc1[N+](=O)[O-])C(=O)C(Br)(Br)CCC2`, for which the TGI in experiment [1] is 4.99 µM; in experiment [2], 21 µM; in experiment [3], 17 µM; in experiment [4], 9.41 µM; in experiment [5], 3.35 µM; in [6], 3.57 µM. Also, the TGI is over 46.6 µM in [7], 5.95 µM in experiment [8], 17 µM in experiment [9] and 3.23 µM in experiment [10].

With `CO/C(=C1/NC(=O)C(Cc2ccc(O)c(Br)c2)N(C)C(=O)C(C)NC(=O)CCC/C=C(\C)CCC(C)OC1=O)c1ccccc1` (centres undefined), the GI50 in [1] is 0.0319 µM; in experiment [2], 33 nM; in experiment [3] it was 24.6 nM; in experiment [4], 24.5 nM; in [5] it was 18.5 nM; in experiment [6], 23.3 nM. The GI50 in experiment [7] was under 14.1 nM; in experiment [8] it was 119 nM; in experiment [9] it was 36 nM; in [10], 19.2 nM. For the same molecule, the TGI is 0.123 µM in [1]; 0.999 µM in experiment [2]; 0.0612 µM in experiment [3]; 0.0662 µM in experiment [4]; 0.0805 µM in experiment [5]; over 100 µM in experiment [6]. Further, the TGI was 0.471 µM in experiment [7], over 100 µM in [8], 0.595 µM in experiment [9] and 0.0458 µM in experiment [10].

As for `Cc1[nH]nc(C(=O)N/N=C/c2ccccc2Cl)c1N=NN(C)C`, the TGI in [1], in [2], in [3], in [4], in experiment [5] and in experiment [6] was over 100 µM throughout. For the same molecule, the TGI in experiment [7], in experiment [8], in experiment [9] and in experiment [10] was over 100 µM each time.
